# Measurements from patent US20130096105A1, “ArylSulfonamide Based Matrix Metalloprotease Inhibitors” (NOVARTIS AG, priority 2008, published 2013).
# pIC50: −log10 of the molar value. Read-outs that look alike come from different tables or passages of the source.
# What was measured:
# Gelatinase (MMP-2) = target: T1, Gelatinase (MMP-2) (Homo sapiens, UniProt P08253); experiment: Gelatinase (MMP-2) inhibitory activity, fluorogenic peptide substrate cleavage; assay type: biochemical
# T1 sequence (P08253 110-660): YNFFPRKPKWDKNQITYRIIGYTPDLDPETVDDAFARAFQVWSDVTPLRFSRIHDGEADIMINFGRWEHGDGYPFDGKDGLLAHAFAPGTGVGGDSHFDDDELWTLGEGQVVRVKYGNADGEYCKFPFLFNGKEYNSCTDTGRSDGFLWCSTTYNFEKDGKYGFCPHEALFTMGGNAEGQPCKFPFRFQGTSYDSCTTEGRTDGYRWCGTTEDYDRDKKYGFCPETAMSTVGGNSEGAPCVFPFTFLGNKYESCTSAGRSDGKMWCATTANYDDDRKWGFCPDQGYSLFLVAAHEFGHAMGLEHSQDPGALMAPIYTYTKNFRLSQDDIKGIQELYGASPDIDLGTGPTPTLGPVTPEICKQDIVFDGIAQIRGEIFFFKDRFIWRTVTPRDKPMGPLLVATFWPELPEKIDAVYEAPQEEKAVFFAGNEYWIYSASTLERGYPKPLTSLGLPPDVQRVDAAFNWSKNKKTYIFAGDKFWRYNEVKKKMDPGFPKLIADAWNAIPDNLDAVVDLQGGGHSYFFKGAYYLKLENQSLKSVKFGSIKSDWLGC
# Procedure: (§1) Gelatinase (MMP-2) inhibitory activities can be determined as follows: Stock solutions of substrate (MCA-Lys-Pro-Leu-Gly-Leu-Dpa-Ala-Arg-NH2) are prepared in DMSO at a concentration of 1.4 mM. Stock solutions of inhibitors (0.03 μM-3 mM) are also prepared in DMSO. The inhibitors are diluted into the assay solutions, and the controls use an equal volume of DMSO so that the final DMSO concentration from the inhibitor and substrate dilutions in all assays is 1.0%. Assays are performed in an assay buffer (100 mM sodium chloride, 10 μM ZnCl. Sub 2, 10 mM CaCl2, 100 mM Tris-Cl pH7.5, 0.05% Brij-35), containing 1.0% DMSO from the substrate and inhibitor additions. The substrate concentration used in the assays is 5 μM. The assays are carried out at 20-25° C. The fluorescence changes, as a result of substrate cleavage, are monitored using an excitation wavelength of 325 nm and an emission wavelength of 405 nm. The reaction mixtures are added in duplicate into appropriate wells of a 384-well assay plate. The reaction mixtures are preincubated with the inhibitors for 60 minutes The reactions are started by the addition of MMP substrate, and the fluorescence intensity changes are measured after 60 minutes The apparent enzyme activity in the presence of an inhibitor is then compared with that in the absence of any inhibitor to determine the inhibition effect of the inhibitor. These techniques are within the knowledge of one skilled in the art. The inhibition results are expressed as the inhibitor concentrations required to effect 50% inhibition (IC50) of the enzyme activity, as compared with the control (non-inhibited) reactions.
# Collagenase-3 (MMP-13) = Collagenase-3 (MMP-13) (Homo sapiens, UniProt P45452); experiment: Collagenase-3 (MMP-13) inhibitory activity, fluorogenic peptide substrate cleavage; assay type: biochemical
# Procedure: as §1
# Collagenase-3 (MMP-13) inhibitory activity is determined as described above. Recombinant pro-collagenase-3 is activated with 1 mM APMA, and stored in the assay buffer after extensive dialysis in the assay buffer.
pIC50 (Gelatinase (MMP-2); read-out: MMP02 IC50),pIC50 (Collagenase-3 (MMP-13); read-out: MMP13 IC50),pIC50 (Gelatinase (MMP-2); read-out: IC50 (gelatinase MMP-2)),pIC50 (Collagenase-3 (MMP-13); read-out: IC50 (collagenase-3 MMP-13)),Structure (SMILES)
5.24,4.98,–,–,"CCN(CC)c1ccc(C(=O)c2ccc(Cl)c(S(N)(=O)=O)c2)cc1 [Example 79, 2-Chloro-5-(4-diethylamino-benzoyl)-benzenesulfonamide]"
–,6.95,7.26,~6.95,"NS(=O)(=O)c1cc(C(=O)c2ccc(N3CCCC3)cc2)ccc1Cl [Example 80, 2-Chloro-5-(4-pyrrolidin-1-yl-benzoyl)benzenesulfonamide]"
5.88,6.00,–,–,"NS(=O)(=O)c1cc(C(=O)c2ccc(N3CC=CC3)cc2)ccc1Cl [Example 81, 2-Chloro-5-[4-(2,5-dihydro-pyrrol-1-yl)-benzoyl]-benzenesulfonamide]"
5.94,6.07,–,–,"NS(=O)(=O)c1cc(C(=O)c2ccc(-n3cccc3)cc2)ccc1Cl [Example 82, 2-Chloro-5-(4-pyrrol-1-yl-benzoyl)-benzenesulfonamide]"
6.06,5.75,–,–,"NS(=O)(=O)c1cc(C(=O)c2ccc(N3CCCCC3)cc2)ccc1Cl [Example 83, 2-Chloro-5-(4-piperidin-1-yl-benzoyl)-benzenesulfonamide]"
5.87,5.12,–,–,"CC1CCCN(c2ccc(C(=O)c3ccc(Cl)c(S(N)(=O)=O)c3)cc2)C1 (centres unmarked) [Example 84, 2-Chloro-5-[4-(3-methyl-piperidin-1-yl)-benzoyl]-benzenesulfonamide]"
5.69,6.24,–,–,"NS(=O)(=O)c1cc(C(=O)c2ccc(N3CCC(c4ccccc4)CC3)cc2)ccc1Cl [Example 85, 2-Chloro-5-[4-(4-phenyl-piperidin-1-yl)-benzoyl]benzenesulfonamide]"
< 4.52,5.12,–,–,"NS(=O)(=O)c1cc(C(=O)c2ccc(N3CCC(Cc4ccccc4)CC3)cc2)ccc1Cl [Example 86, 5-[4-(4-Benzyl-piperidin-1-yl)-benzoyl]-2-chloro-benzenesulfonamide]"
5.76,5.92,–,–,"CN1CCN(c2ccc(C(=O)c3ccc(Cl)c(S(N)(=O)=O)c3)cc2)CC1 [Example 87, 2-Chloro-5-[4-(4-methyl-piperazin-1-yl)-benzoyl]-benzenesulfonamide]"
6.02,5.74,–,–,"NS(=O)(=O)c1cc(C(=O)c2ccc(N3CCOCC3)cc2)ccc1Cl [Example 88, 2-Chloro-5-(4-morpholin-4-yl-benzoyl)-benzenesulfonamide]"
5.69,5.48,–,–,"NS(=O)(=O)c1cc(C(=O)c2ccc(N3CCC3=O)cc2)ccc1Cl [Example 89, 2-Chloro-5-[4-(2-oxo-azetidin-1-yl)-benzoyl]-benzenesulfonamide]"
4.86,4.97,–,–,"NS(=O)(=O)c1cc(C(=O)c2ccc(N3CCCCCC3)cc2)ccc1Cl [Example 90, 5-(4-Azepan-1-yl-benzoyl)-2-chloro-benzenesulfonamide]"
< 4.52,4.65,–,–,"COc1ccc(C(=O)c2ccc(Cl)c(S(=O)(=O)NCCc3ccc([N+](=O)[O-])cc3)c2)cc1 [Example 91, 2-Chloro-5-(4-methoxy-benzoyl)-N-[2-(4-nitro-phenyl)-ethyl]-benzenesulfonamide]"
4.64,4.68,–,–,"NS(=O)(=O)c1cc(C(=O)c2ccc(Nc3ccccc3)cc2)ccc1Cl [Example 92, 2-Chloro-5-(4-phenylamino-benzoyl)-benzenesulfonamide]"
4.58,4.86,–,–,"NS(=O)(=O)c1cc(C(=O)c2ccc3ccccc3c2)ccc1Cl [Example 93, 2-Chloro-5-(naphthalene-2-carbonyl)benzenesulfonamide]"
4.63,4.65,–,–,"NS(=O)(=O)c1cc(C(=O)c2ccc3c(c2)CCC3)ccc1Cl [Example 94, 2-Chloro-5-(indane-5-carbonyl)-benzenesulfonamide]"

pIC50 (Gelatinase (MMP-2); read-out: MMP02 IC50),pIC50 (Collagenase-3 (MMP-13); read-out: MMP13 IC50),pIC50 (Gelatinase (MMP-2); read-out: IC50 (gelatinase MMP-2)),pIC50 (Collagenase-3 (MMP-13); read-out: IC50 (collagenase-3 MMP-13)),Structure (SMILES)
5.40,5.21,–,–,"NS(=O)(=O)c1cc(C(=O)c2cc[nH]c2)ccc1Cl [Example 95, 2-Chloro-5-(1H-pyrrole-3-carbonyl)-benzenesulfonamide]"
5.00,4.83,–,–,"NS(=O)(=O)c1cc(C(=O)c2cccs2)ccc1Cl [Example 96, 2-Chloro-5-(thiophene-2-carbonyl)-benzenesulfonamide]"
5.92,6.20,–,–,"NS(=O)(=O)c1cc(C(=O)c2ccc3nc[nH]c3c2)ccc1Cl [Example 97, 5-(3H-Benzoimidazole-5-carbonyl)-2-chloro-benzenesulfonamide]"
5.65,5.08,–,–,"Cc1nc2ccc(C(=O)c3ccc(Cl)c(S(N)(=O)=O)c3)cc2[nH]1 [Example 98, 2-Chloro-5-(2-methyl-3H-benzoimidazole-5-carbonyl)-benzenesulfonamide]"
6.57,6.60,–,–,"CCc1n[nH]c2cc(C(=O)c3ccc(Cl)c(S(N)(=O)=O)c3)ccc12 [Example 99, 2-Chloro-5-(3-ethyl-1H-indazole-6-carbonyl)-benzenesulfonamide]"
6.59,6.60,–,–,"Cc1n[nH]c2cc(C(=O)c3ccc(Cl)c(S(N)(=O)=O)c3)ccc12 [Example 100, 2-Chloro-5-(3-methyl-1H-indazole-6-carbonyl)benzenesulfonamide]"
5.20,5.44,–,–,"CC(C)c1n[nH]c2cc(C(=O)c3ccc(Cl)c(S(N)(=O)=O)c3)ccc12 [Example 101, 2-Chloro-5-(3-isopropyl-1H-indazole-6-carbonyl)-benzenesulfonamide]"
6.00,5.57,–,–,"NS(=O)(=O)c1cc(C(=O)c2ccc3c(c2)[nH]c2ccccc23)ccc1Cl [Example 102, 5-(9H-Carbazole-2-carbonyl)-2-chloro-benzenesulfonamide]"
6.07,6.44,–,–,"CCOC(=O)N1CCc2[nH]c3cc(C(=O)c4ccc(Cl)c(S(N)(=O)=O)c4)ccc3c2C1 [Example 103, 7-(4-Chloro-3-sulfamoyl-benzoyl)-1,3,4,5-tetrahydro-pyrido[4,3-b]indole-2-carboxylic acid ethyl ester]"
4.67,5.72,–,–,"CCOC(=O)N1CCc2[nH]c3ccc(C(=O)c4ccc(Cl)c(S(N)(=O)=O)c4)cc3c2C1 [Example 104, 8-(4-Chloro-3-sulfamoyl-benzoyl)-1,3,4,5-tetrahydro-pyrido[4,3-b]indole-2-carboxylic acid ethyl ester]"
5.10,5.05,–,–,"NS(=O)(=O)c1cc(C(=O)c2ccc3c4c([nH]c3c2)C(=O)NCC4)ccc1Cl [Example 105, 2-Chloro-5-(1-oxo-2,3,4,9-tetrahydro-1H-beta-carboline-7-carbonyl)-benzenesulfonamide]"
< 5.57,6.02,–,–,"CC(C)(C)C(=O)N1CCc2c([nH]c3ccc(C(=O)c4ccc(Cl)c(S(N)(=O)=O)c4)cc23)C1 [Example 106, 2-Chloro-5-[2-(2,2-dimethyl-propionyl)-2,3,4,9-tetrahydro-1H-beta-carbolise-6-carbonyl]-benzenesulfonamide]"
7.57,7.16,–,–,"CN1C(=O)CCC2=C1Cc1cc(C(=O)c3ccc(Cl)c(S(N)(=O)=O)c3)ccc12 [Example 107, 2-Chloro-5-(1-methyl-2-oxo-2,3,4,9-tetrahydro-1H-indeno[2,1-b]pyridine-7-carbonyl)-benzenesulfonamide]"
5.54,5.39,–,–,"CCN1C(=O)CCC2=C1Cc1cc(C(=O)c3ccc(Cl)c(S(N)(=O)=O)c3)ccc12 [Example 108, 2-Chloro-5-(1-ethyl-2-oxo-2,3,4,9-tetrahydro-1H-indeno[2,1-b]pyridine-7-carbonyl)-benzenesulfonamide]"
4.66,4.70,–,–,"Cc1ccc(C)n1-c1ccc(C(=O)c2ccc(Cl)c(S(N)(=O)=O)c2)cc1F [Example 109, 2-Chloro-5-[4-(2,5-dimethyl-pyrrol-1-yl)-3-fluoro-benzoyl]-benzenesulfonamide]"
5.05,5.51,–,–,"NS(=O)(=O)c1cc(C(=O)c2c[nH]c3ccccc23)ccc1Cl [Example 113, 2-Chloro-5-(1H-indole-3-carbonyl)-benzenesulfonamide]"
